According to ChEMBL document CHEMBL3991601, “The target landscape of clinical kinase drugs” (Science, 2017):
Activity calls are given as the source filed them.

What was measured:
[1] = target: Tyrosine-protein kinase ABL1 (Homo sapiens, UniProt P00519)
[2] = target: Cyclin-dependent kinase 1 (Homo sapiens, UniProt P06493)
[3] = target: Cyclin-dependent kinase 4 (Homo sapiens, UniProt P11802)
Ephrin type-B receptor 2 = target: T1, Ephrin type-B receptor 2 (Homo sapiens, UniProt P29323)
T1 sequence (P29323 whole entry): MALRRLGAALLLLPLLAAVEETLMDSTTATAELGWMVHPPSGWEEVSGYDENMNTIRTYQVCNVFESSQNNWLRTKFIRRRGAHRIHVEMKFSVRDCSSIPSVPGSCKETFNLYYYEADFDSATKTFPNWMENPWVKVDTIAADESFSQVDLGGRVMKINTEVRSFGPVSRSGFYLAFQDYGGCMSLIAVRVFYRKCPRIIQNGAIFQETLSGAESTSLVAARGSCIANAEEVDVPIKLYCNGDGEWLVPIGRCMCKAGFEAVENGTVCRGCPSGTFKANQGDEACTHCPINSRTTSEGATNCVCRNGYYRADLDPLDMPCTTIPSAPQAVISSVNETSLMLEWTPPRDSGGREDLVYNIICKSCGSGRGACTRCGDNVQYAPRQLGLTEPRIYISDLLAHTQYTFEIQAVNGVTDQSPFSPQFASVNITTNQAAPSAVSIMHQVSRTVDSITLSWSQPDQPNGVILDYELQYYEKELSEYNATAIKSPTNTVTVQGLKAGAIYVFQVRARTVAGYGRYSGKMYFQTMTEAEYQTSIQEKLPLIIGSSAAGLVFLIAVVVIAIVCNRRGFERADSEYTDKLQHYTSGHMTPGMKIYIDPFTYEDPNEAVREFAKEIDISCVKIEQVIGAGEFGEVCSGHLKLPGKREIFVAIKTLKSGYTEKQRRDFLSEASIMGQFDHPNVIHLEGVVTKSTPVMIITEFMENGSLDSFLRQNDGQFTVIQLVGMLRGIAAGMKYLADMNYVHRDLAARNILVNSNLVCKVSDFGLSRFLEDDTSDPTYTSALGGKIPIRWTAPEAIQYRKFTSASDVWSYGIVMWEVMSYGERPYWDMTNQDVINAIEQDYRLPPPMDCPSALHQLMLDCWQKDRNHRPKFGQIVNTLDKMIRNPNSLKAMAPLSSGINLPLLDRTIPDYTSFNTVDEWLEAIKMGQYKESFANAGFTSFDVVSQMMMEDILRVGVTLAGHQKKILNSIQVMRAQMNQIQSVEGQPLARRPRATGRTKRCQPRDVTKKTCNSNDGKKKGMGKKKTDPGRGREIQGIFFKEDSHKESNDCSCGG

[4] = target: Fibroblast growth factor receptor 1 (Homo sapiens, UniProt P11362)
[5] = target: T2, Dual specificity mitogen-activated protein kinase kinase 3 (Homo sapiens, UniProt P46734)
T2 sequence (P46734 whole entry): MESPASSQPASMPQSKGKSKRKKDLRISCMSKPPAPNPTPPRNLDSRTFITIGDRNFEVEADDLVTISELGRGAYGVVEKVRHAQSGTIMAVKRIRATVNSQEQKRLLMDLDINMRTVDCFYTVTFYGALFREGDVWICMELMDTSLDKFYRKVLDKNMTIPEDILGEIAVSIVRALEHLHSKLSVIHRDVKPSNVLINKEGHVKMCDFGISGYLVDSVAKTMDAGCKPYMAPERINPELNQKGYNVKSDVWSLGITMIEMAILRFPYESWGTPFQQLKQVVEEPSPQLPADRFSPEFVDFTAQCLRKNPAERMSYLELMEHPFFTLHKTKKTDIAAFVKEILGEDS

[6] = target: Mitogen-activated protein kinase 11 (Homo sapiens, UniProt Q15759)
[7] = target: cAMP-dependent protein kinase catalytic subunit alpha (Homo sapiens, UniProt P17612)
[8] = target: T3, cGMP-dependent protein kinase 1 (Homo sapiens, UniProt Q13976)
T3 sequence (Q13976 whole entry): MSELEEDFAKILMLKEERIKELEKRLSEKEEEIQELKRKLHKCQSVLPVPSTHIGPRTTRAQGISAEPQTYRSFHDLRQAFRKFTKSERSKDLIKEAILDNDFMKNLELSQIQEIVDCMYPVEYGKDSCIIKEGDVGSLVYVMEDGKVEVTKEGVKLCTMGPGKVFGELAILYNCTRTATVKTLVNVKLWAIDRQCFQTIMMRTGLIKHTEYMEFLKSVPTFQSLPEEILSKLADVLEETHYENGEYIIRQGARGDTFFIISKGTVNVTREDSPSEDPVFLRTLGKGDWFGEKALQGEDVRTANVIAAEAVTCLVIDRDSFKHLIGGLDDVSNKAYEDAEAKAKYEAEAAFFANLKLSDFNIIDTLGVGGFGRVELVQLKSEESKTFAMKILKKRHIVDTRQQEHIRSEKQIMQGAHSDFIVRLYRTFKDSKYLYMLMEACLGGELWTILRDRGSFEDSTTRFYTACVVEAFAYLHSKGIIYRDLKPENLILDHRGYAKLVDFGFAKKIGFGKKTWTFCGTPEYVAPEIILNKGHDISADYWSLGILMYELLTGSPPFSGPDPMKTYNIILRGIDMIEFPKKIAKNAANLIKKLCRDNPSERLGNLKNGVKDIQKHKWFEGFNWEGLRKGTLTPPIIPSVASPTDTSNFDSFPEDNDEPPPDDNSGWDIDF

Focal adhesion kinase 1 = Focal adhesion kinase 1 (Homo sapiens, UniProt Q05397)
[9] = target: U5 small nuclear ribonucleoprotein 200 kDa helicase (Homo sapiens, UniProt O75643)
[10] = target: T4, Serine/threonine-protein kinase STK11 (Homo sapiens, UniProt Q15831)
T4 sequence (Q15831 whole entry): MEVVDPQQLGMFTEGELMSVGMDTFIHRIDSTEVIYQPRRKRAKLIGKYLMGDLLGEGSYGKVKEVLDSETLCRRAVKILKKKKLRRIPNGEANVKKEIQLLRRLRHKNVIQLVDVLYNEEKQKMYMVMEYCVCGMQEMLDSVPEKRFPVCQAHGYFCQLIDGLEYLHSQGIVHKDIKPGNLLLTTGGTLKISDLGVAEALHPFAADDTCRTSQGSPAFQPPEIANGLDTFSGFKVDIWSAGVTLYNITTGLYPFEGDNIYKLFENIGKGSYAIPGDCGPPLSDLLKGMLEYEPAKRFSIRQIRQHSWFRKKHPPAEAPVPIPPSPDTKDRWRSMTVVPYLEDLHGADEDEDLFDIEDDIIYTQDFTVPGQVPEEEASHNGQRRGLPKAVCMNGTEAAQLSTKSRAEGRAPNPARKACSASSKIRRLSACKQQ
Further: in the data inactive means no Kd found up to 30 µM.

Chain of U5 small nuclear ribonucleoprotein 200 kDa helicase (O75643 whole entry): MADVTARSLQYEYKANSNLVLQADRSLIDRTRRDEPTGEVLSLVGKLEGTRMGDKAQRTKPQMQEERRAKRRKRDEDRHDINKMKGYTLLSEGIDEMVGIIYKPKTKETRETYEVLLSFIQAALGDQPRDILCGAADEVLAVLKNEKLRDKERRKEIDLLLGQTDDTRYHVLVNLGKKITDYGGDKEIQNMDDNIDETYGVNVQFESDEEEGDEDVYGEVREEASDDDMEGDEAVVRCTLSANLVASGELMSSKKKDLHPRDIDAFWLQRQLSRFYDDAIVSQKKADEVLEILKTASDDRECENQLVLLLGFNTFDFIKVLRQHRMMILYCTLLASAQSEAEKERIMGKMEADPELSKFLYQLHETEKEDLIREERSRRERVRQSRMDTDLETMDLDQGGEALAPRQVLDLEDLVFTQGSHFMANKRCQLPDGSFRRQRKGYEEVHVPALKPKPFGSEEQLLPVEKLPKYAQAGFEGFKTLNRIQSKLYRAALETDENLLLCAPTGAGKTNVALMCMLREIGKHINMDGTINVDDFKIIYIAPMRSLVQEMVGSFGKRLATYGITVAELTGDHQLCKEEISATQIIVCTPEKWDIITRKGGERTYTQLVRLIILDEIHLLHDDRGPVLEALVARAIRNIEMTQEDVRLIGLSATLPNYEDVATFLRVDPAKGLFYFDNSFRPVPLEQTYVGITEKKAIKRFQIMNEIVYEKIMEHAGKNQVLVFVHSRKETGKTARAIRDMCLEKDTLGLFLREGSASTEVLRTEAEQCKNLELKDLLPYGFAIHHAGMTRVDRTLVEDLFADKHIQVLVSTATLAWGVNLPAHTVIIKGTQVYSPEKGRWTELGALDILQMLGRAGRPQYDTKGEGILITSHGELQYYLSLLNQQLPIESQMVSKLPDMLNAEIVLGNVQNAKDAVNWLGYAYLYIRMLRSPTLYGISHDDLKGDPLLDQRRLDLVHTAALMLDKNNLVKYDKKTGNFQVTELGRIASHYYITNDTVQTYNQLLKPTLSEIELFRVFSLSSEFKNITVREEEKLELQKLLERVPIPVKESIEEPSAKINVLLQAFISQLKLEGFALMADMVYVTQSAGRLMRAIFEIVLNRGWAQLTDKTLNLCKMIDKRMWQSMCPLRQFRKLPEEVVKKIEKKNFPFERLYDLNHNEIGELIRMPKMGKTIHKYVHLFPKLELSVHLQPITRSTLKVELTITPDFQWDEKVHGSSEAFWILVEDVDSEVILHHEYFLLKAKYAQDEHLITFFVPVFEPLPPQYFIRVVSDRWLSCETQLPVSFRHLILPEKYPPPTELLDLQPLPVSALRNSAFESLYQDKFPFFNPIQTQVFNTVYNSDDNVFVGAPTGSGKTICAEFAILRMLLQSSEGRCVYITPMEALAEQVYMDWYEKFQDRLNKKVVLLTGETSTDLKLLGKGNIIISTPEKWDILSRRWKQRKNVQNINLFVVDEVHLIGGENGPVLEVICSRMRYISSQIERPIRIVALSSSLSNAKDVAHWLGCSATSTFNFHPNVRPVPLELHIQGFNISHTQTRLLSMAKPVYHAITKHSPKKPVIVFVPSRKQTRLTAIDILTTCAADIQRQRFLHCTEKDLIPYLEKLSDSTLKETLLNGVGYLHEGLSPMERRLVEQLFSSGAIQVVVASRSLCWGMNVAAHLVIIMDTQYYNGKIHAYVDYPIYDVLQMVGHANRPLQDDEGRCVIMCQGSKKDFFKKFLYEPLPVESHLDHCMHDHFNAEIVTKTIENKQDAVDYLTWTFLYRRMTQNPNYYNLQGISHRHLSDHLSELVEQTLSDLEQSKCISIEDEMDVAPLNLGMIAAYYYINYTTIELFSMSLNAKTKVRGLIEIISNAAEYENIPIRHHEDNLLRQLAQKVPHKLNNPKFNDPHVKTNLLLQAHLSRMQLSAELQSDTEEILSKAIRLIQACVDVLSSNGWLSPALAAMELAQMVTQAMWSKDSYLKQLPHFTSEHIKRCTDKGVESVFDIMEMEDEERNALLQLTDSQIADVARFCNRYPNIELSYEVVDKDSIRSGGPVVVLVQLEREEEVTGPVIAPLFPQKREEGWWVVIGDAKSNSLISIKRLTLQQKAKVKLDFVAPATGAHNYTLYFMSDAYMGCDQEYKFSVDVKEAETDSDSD
Chain of Mitogen-activated protein kinase 11 (Q15759 whole entry): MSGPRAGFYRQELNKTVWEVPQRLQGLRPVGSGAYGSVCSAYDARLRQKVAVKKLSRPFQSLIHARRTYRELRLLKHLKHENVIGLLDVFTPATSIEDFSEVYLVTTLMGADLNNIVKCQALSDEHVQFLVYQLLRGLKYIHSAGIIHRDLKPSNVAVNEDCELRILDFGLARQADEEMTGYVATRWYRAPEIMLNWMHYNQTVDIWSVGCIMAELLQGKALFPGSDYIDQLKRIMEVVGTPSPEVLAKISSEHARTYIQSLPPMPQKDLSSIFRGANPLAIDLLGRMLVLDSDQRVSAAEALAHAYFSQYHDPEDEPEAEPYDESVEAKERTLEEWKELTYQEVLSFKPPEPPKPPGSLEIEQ
Chain of Cyclin-dependent kinase 4 (P11802 whole entry): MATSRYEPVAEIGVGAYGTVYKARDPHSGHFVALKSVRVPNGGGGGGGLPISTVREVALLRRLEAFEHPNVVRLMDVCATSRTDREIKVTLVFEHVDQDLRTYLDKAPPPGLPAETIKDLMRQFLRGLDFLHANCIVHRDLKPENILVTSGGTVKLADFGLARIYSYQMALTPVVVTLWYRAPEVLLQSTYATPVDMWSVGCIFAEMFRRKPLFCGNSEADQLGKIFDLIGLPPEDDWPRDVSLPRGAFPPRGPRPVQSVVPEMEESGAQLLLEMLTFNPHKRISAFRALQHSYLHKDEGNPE
Chain of Focal adhesion kinase 1 (Q05397 whole entry): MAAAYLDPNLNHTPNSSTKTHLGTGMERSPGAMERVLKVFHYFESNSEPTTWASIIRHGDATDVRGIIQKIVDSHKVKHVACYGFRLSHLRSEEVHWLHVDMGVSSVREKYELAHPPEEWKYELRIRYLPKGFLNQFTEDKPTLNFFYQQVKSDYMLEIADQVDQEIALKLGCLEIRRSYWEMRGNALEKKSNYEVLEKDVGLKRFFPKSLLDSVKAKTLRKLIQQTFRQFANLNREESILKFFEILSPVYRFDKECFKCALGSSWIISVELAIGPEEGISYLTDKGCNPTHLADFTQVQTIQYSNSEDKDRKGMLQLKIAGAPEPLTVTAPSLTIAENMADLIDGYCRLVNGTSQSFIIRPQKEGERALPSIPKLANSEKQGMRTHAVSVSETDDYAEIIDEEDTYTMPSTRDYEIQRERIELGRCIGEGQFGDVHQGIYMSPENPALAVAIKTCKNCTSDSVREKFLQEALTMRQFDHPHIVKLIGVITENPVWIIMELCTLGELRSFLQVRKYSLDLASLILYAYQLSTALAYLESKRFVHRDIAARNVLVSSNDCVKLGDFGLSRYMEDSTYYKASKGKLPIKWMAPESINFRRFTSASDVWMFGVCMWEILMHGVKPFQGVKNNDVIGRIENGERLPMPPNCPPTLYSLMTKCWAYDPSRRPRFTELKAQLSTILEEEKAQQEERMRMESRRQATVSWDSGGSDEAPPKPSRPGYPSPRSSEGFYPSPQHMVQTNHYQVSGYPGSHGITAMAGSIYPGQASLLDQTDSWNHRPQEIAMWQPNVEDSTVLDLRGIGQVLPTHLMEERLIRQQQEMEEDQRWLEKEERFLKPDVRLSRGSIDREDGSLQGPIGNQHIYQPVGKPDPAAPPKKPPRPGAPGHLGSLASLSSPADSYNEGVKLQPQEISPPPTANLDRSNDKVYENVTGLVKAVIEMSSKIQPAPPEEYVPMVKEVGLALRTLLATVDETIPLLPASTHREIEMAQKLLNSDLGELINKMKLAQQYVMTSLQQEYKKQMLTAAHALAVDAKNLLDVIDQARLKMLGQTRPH
Chain of Fibroblast growth factor receptor 1 (P11362 whole entry): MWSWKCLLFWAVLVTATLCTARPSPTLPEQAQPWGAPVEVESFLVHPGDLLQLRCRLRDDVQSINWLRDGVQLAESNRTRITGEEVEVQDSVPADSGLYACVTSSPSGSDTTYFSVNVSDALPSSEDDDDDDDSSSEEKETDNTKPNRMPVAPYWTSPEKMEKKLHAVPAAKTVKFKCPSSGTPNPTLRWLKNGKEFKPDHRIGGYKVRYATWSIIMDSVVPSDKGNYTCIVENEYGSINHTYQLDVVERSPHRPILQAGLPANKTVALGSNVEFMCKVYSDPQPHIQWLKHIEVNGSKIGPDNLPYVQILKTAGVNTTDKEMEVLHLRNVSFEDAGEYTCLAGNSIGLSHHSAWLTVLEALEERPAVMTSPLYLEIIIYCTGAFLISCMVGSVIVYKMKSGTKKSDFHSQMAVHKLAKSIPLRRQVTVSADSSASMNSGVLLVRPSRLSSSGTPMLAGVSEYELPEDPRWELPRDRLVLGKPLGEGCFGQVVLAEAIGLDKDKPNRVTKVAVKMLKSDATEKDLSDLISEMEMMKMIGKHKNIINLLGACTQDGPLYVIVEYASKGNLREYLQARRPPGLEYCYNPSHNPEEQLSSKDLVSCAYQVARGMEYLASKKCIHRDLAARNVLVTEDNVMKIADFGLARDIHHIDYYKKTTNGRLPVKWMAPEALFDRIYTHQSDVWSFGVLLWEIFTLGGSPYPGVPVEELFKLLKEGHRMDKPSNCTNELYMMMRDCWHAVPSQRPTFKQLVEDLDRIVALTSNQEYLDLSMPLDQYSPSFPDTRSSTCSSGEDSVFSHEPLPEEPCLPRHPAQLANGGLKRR
Chain of Cyclin-dependent kinase 1 (P06493 whole entry): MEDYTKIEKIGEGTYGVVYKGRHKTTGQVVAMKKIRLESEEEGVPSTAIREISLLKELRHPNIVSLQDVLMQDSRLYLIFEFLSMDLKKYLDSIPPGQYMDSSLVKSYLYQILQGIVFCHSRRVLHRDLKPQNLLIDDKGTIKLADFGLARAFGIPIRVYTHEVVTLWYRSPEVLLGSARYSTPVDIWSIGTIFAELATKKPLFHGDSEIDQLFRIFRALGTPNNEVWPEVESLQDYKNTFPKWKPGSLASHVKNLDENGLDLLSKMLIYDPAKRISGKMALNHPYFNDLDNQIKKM

Row | SMILES | Kd [1] | Kd [2] | Kd [3] | Kd (Ephrin type-B receptor 2) | Kd [4] | Kd [5] | Kd [6] | Kd [7] | Kd [8] | Kd (Focal adhesion kinase 1) | Kd [9] | Kd [10]
1 | CNC(=O)c1cccc2cc(Oc3ccnc4cc(OCC5(N)CC5)c(OC)cc34)ccc12 [LUCITANIB] | > 30 µM (inactive) | > 30 µM (inactive) | > 30 µM (inactive) | > 30 µM (inactive) | > 30 µM (inactive) | > 30 µM (inactive) | > 30 µM (inactive) | > 30 µM (inactive) | > 30 µM (inactive) | > 30 µM (inactive) | > 30 µM (inactive) | > 30 µM (inactive)
2 | C=CC(=O)Nc1cc2c(Nc3ccc(F)c(Cl)c3)ncnc2cc1C#CC(C)(C)N1CCN(C)CC1 [AV-412 FREE BASE] | > 30 µM (inactive) | > 30 µM (inactive) | > 30 µM (inactive) | > 30 µM (inactive) | > 30 µM (inactive) | > 30 µM (inactive) | > 30 µM (inactive) | > 30 µM (inactive) | > 30 µM (inactive) | > 30 µM (inactive) | > 30 µM (inactive) | > 30 µM (inactive)
3 | NC(=O)Nc1cc(-c2cccc(F)c2)sc1C(=O)N[C@H]1CCCNC1 [AZD-7762] | 0.61 µM (active) | > 30 µM (inactive) | > 30 µM (inactive) | > 30 µM (inactive) | > 30 µM (inactive) | > 30 µM (inactive) | > 30 µM (inactive) | > 30 µM (inactive) | > 30 µM (inactive) | 0.948 µM (active) | > 30 µM (inactive) | > 30 µM (inactive)
4 | CCn1c(C(=O)N(C2CC2)C2CC2)cc2c3c(ncn3C)c(Nc3cc(C)n(C)n3)nc21 [BMS-911543] | > 30 µM (inactive) | > 30 µM (inactive) | > 30 µM (inactive) | > 30 µM (inactive) | > 30 µM (inactive) | > 30 µM (inactive) | > 30 µM (inactive) | > 30 µM (inactive) | > 30 µM (inactive) | > 30 µM (inactive) | > 30 µM (inactive) | > 30 µM (inactive)

The remaining lines, values ahead:

Row | Kd [1] | Kd [2] | Kd [3] | Kd (Ephrin type-B receptor 2) | Kd [4] | Kd [5] | Kd [6] | Kd [7] | Kd [8] | Kd (Focal adhesion kinase 1) | Kd [9] | Kd [10] | SMILES
5 | 0.498 µM (active) | > 30 µM (inactive) | > 30 µM (inactive) | > 30 µM (inactive) | > 30 µM (inactive) | > 30 µM (inactive) | 0.684 µM (active) | > 30 µM (inactive) | > 30 µM (inactive) | > 30 µM (inactive) | > 30 µM (inactive) | > 30 µM (inactive) | C[C@@H](NC(=O)c1ncnc(N)c1Cl)c1ncc(C(=O)Nc2cc(C(F)(F)F)c(Cl)cn2)s1 [TOVORAFENIB]
6 | > 30 µM (inactive) | > 30 µM (inactive) | > 30 µM (inactive) | > 30 µM (inactive) | > 30 µM (inactive) | > 30 µM (inactive) | > 30 µM (inactive) | > 30 µM (inactive) | > 30 µM (inactive) | > 30 µM (inactive) | > 30 µM (inactive) | > 30 µM (inactive) | Cn1cc(-c2cnn3c(N)c(Br)c([C@@H]4CCCNC4)nc23)cn1 [SCH-900776]
